Activity calls are given as the source filed them. No cut-off for these calls is given here.

The source of these data is ChEMBL document CHEMBL1156078, “Structure-activity relationship (SAR) studies of 3-(2-amino-ethyl)-5-(4-ethoxy-benzylidene)-thiazolidine-2,4-dione: development of potential substrate-specific ERK1/2 inhibitors” (Bioorg Med Chem Lett, 2009).

Experiment [1] in a line: Inhibition of JNK phosphorylation.
Experiment [2] in a line: Inhibition of MEK phosphorylation.
The target of experiment [3] is Ribosomal protein S6 kinase alpha-1 (Homo sapiens) (UniProt Q15418). The experiment in a line: Inhibition of Rsk1 phosphorylation in PMA-stimulated human U937 cells at 50 uM after 3 hrs by Western blotting. It is filed as cell-based. Conditions: U-937. In general terms: A western blot detects proteins with antibodies after separation by electrophoresis.
Ribosomal protein S6 kinase alpha-1 (Homo sapiens), sequence (Q15418 whole entry, the tested form may be a part): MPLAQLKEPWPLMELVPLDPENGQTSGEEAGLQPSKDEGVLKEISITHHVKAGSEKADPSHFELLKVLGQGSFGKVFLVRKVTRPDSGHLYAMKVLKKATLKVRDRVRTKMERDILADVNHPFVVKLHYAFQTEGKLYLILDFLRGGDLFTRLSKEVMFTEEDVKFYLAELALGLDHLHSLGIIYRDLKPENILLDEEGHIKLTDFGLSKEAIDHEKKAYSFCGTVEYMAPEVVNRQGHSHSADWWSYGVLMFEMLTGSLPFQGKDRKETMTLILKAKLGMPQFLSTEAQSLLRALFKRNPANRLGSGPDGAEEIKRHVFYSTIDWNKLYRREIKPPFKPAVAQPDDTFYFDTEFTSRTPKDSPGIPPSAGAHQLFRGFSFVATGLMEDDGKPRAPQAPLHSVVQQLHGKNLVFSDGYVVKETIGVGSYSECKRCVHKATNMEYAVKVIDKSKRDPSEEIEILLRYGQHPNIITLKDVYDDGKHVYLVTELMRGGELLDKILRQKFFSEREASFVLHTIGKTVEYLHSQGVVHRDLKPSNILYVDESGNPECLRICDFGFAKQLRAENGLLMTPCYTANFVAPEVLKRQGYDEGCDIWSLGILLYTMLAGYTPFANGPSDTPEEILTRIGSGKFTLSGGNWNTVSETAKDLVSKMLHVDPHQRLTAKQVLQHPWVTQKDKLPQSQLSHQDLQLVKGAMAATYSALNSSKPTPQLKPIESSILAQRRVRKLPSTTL
The test system of experiment [4] is U-937. Description: Cytotoxicity against human U937 cells assessed as cell viability up to 30 uM after 24 hrs by MTT assay. The class given is functional, cell-based. (Tetrazolium dyes change colour on reduction, which living cells bring about.)
In experiment [5] the target is T1, Mitogen-activated protein kinase; ERK1/ERK2 (Homo sapiens) (UniProt P27361+P28482). Description: Inhibition of ERK1/2 phosphorylation in PMA-stimulated human U937 cells at 50 uM after 3 hrs by Western blotting. It is filed as cell-based. Conditions: U-937.
T1 sequence (P27361 whole entry, looked up): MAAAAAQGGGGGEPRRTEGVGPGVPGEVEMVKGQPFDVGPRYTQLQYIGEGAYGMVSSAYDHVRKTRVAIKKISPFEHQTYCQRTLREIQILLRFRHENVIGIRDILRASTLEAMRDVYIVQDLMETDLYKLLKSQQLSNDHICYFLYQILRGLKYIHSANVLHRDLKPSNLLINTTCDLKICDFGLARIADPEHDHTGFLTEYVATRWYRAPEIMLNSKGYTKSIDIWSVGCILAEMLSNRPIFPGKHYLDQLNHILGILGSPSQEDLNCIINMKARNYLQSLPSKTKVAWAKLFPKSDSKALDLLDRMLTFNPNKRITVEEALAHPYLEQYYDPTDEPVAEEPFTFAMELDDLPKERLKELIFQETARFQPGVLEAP
T1 sequence (P28482 whole entry, looked up): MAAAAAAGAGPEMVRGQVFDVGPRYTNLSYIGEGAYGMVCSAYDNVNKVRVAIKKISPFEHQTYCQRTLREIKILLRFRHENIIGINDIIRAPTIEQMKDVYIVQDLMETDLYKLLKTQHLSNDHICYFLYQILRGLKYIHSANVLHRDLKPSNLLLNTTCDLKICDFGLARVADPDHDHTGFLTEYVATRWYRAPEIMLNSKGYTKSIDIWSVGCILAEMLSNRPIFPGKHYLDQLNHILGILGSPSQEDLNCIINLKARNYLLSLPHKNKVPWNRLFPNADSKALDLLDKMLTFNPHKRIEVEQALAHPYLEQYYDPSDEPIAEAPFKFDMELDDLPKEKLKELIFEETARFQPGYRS
For experiment [6], the target named is Mitogen-activated protein kinase 1 (Homo sapiens) (UniProt P28482). Description: Inhibition of recombinant ERK2-mediated myelin basic protein phosphorylation at 50 uM after 30 mins by SDS-PAGE.
Mitogen-activated protein kinase 1 (Homo sapiens), sequence (P28482 whole entry): as the sequence (P28482 whole entry, looked up) above
In experiment [7] the target is T1, Mitogen-activated protein kinase; ERK1/ERK2 (Homo sapiens). Description: Inhibition of ERK1/2 phosphorylation in EGF-stimulated human SKOV3 cells. The class given is cell-based. Conditions: SK-OV-3.
The target in experiment [8] is MAP kinase p38 (Homo sapiens) (UniProt O15264+Q15759+Q16539+P53778). Description: Inhibition of p38 phosphorylation in PMA-stimulated human U937 cells at 50 uM after 3 hrs by Western blotting. As to conditions: U-937. The class given is cell-based.
The target in experiment [9] is T1, Mitogen-activated protein kinase; ERK1/ERK2 (Homo sapiens). Description: Inhibition of ERK1/2 phosphorylation in PMA-stimulated human U937 cells at 10 to 50 uM after 3 hrs by Western blotting. The class given is cell-based. As to conditions: U-937.
Experiment [10] concerns the target Ribosomal protein S6 kinase alpha-1 (Homo sapiens) (UniProt Q15418). Description: Inhibition of Rsk1 phosphorylation in PMA-stimulated human U937 cells at 10 to 50 uM after 3 hrs by Western blotting. The class given is cell-based. Conditions: U-937.
The target of experiment [11] is T2, ETS domain-containing protein Elk-1 (Homo sapiens) (UniProt P19419).
T2 sequence (whole entry): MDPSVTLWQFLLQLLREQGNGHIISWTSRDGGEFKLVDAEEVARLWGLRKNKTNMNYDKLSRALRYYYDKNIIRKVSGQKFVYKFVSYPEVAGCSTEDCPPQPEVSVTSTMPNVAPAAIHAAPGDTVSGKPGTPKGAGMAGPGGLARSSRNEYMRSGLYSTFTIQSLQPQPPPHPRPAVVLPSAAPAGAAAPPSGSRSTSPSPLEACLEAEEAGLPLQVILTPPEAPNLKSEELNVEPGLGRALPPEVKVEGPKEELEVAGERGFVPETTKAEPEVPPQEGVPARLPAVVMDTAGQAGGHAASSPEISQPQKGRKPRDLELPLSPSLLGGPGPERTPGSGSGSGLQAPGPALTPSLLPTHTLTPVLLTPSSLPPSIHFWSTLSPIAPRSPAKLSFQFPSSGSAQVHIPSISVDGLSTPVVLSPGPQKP
The experiment in a line: Inhibition of Elk1 phosphorylation in PMA-stimulated human U937 cells at 50 uM after 3 hrs by Western blotting. The class given is cell-based. Conditions: U-937.

Experiment [12] deals with U-937. The experiment in a line: Antiproliferative activity human U937 cells by [3H]thymidine incorporation assay. The class given is functional, cell-based.
The subject of experiment [13] is U-937. Description: Induction of apoptosis in human U937 assessed as loss of mitochondrial membrane potential after 18 hrs by DiOC6 uptake assay. The class given is functional, cell-based.
In experiment [14] the target is Dual specificity mitogen-activated protein kinase kinase; MEK1/2 (Homo sapiens) (UniProt P36507+Q02750). The experiment in a line: Inhibition of MEK1/2 phosphorylation in PMA-stimulated human U937 cells at 50 uM after 3 hrs by Western blotting. The class given is cell-based. As to conditions: U-937.
Dual specificity mitogen-activated protein kinase kinase; MEK1/2 (Homo sapiens), sequence (P36507 whole entry, looked up): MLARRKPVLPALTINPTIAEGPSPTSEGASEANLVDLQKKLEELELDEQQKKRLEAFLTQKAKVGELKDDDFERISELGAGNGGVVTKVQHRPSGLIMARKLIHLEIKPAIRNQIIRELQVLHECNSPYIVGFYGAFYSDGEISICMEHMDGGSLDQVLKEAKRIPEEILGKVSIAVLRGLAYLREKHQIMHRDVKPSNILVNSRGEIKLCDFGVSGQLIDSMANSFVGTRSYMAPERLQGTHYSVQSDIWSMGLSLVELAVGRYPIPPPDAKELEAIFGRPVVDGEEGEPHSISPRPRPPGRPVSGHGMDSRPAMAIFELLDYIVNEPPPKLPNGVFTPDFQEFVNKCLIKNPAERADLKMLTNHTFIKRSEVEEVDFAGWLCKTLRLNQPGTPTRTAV
Dual specificity mitogen-activated protein kinase kinase; MEK1/2 (Homo sapiens), sequence (Q02750 whole entry, looked up): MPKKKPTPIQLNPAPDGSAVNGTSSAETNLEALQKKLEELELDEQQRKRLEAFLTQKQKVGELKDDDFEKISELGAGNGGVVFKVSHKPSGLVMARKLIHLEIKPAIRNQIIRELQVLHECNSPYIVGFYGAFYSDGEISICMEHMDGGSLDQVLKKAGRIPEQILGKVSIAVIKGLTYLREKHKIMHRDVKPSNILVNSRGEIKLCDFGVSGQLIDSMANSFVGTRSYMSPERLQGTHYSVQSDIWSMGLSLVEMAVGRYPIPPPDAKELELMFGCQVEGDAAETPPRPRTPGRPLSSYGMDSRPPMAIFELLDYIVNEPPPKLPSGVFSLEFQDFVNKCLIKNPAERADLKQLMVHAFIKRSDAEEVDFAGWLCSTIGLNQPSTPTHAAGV

Turning to `CCOc1ccc(/C=C2\SC(=O)N(CCN)C2=O)cc1`, the inhibition result in [1], in experiment [2], in experiment [5], in experiment [6], in experiment [7] and in experiment [8] was “inactive” in each case. In addition, the inhibition entry in experiment [3] was “Active”. Besides, the result in the experiment with U-937 [4] was inactive.

On to `CCOc1cccc(/C=C2\SC(=O)N(CCN)C2=O)c1`, for which the inhibition entry in experiment [9] and in [10] was “inactive” throughout.

`CCOc1ccccc1/C=C1\SC(=O)N(CCN)C1=O`: the inhibition result in experiment [1], in experiment [2], in experiment [9], in experiment [6], in [7] and in [8] was “inactive” throughout. The inhibition entry in [11] and in experiment [10] was “Active” each time. Moreover, the Activity result in the experiment with U-937 [12] and in the experiment on U-937 [13] was “Dose-dependent effect” each time. In addition, the outcome in the experiment with U-937 [4] was inactive.

`NCCN1C(=O)S/C(=C\c2cccc3ccccc23)C1=O`: the inhibition entry in experiment [11], in [14], in experiment [3], in experiment [5] and in experiment [8] was “Active” in each case. Further, in the experiment with U-937 [13], the result was inactive.

For the compound `NCCN1C(=O)S/C(=C\c2ccc([N+](=O)[O-])cc2)C1=O`, the inhibition entry in experiment [10] is “inactive”.

Take `NCCN1C(=O)S/C(=C\c2ccc(-c3ccc(Cl)cc3)cc2)C1=O`: in experiment [9], the inhibition result was “inactive”. The inhibition result in experiment [10] was “Active”.

As to `Cc1ccc(/C=C2\SC(=O)N(CCN)C2=O)cc1`, the inhibition entry in experiment [9] and in experiment [10] was “inactive” throughout.

On to `CCOc1ccc(/C=C2\SC(=O)N(CCN(C)C)C2=O)cc1`, for which the inhibition entry in experiment [10] was “inactive”.

For `CN(C)CCN1C(=O)S/C(=C\C/C=C/c2ccccc2)C1=O`, the inhibition entry in experiment [11], in [3] and in [5] was “Active” in each case. Besides, the inhibition result in experiment [8] is “inactive”.

As for `NCCN1C(=O)S/C(=C\c2ccc(F)cc2)C1=O`, the inhibition result in [10] is “inactive”.

For `NCCN1C(=O)S/C(=C\c2cccc(F)c2)C1=O`, the inhibition entry in [10] was “inactive”.

On to `NCCN1C(=O)S/C(=C\c2ccc3c(c2)OCCO3)C1=O`, for which the inhibition entry in experiment [11], in [14], in experiment [3], in experiment [5] and in experiment [8] was “Active” in each case. In addition, the result with U-937 [13] was inactive.

With `COc1ccc(/C=C2\SC(=O)N(CCN)C2=O)cc1`, the inhibition result in experiment [9] and in [10] was “inactive” in each case.

For the compound `NCCN1C(=O)S/C(=C\c2ccccc2)C1=O`, the inhibition entry in [9] and in [10] was “inactive” each time.

Turning to `CCOc1ccc(/C=C2\SC(=O)N(CCNC(C)=O)C2=O)cc1`, the inhibition result in experiment [10] is “inactive”.

Take `NCCN1C(=O)S/C(=C\[C@H](O)[C@@H](O)c2ccccc2)C1=O`: the inhibition entry in experiment [5] was “inactive”.

Turning to `NCCN1C(=O)S/C(=C\c2cccc([N+](=O)[O-])c2)C1=O`, in [10], the inhibition result was “inactive”.
